Results reported in patent US9302999B2, “Substituted triazoles as herbicides” (E. I. DU PONT DE NEMOURS AND COMPANY, priority 2012, dated 2016).

Columns and labels:
Format in all cases: in vivo
rice (Oryza sativa) = experiment: Test B flooded paddy: rice; conditions: Flood, applied to paddy water at 2-leaf stage, visually evaluated after 13 to 15 days
Outline: (§1)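 Flooded-pot test: compound dosed into 3 cm of standing water above soil when plants had two leaves. Visual control ratings (0–100) versus untreated plants after 13–15 d.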

[1] = test system: crabgrass, large (large crabgrass, Digitaria sanguinalis); experiment: Test A pre-/postemergence: crabgrass, large
Outline: (§2)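 Whole-plant greenhouse assay in loam/sand. Preemergence directed soil spray plus simultaneous postemergence spray (one- to two-leaf stage, 2–10 cm). Rated visually ~10 days later, 0 = no effect, 100 = complete control.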

[2] = test system: barnyardgrass (Echinochloa crus-galli); experiment: Test B flooded paddy: barnyardgrass; conditions: Flood, applied to paddy water at 2-leaf stage, visually evaluated after 13 to 15 days
Outline: as §1

[3] = test system: lambsquarters (Chenopodium album); experiment: Test C pre-/postemergence: lambsquarters
Outline: (§3)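 Preemergence on seeds in loam/sand, postemergence on 2–18 cm (1–4-leaf) plants in peat-based medium; compounds in non-phytotoxic solvent with surfactant. After 13–15 days in greenhouse, visual rating versus controls, 0 (no effect) to 100 (complete control).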

[4] = test system: blackgrass (Alopecurus myosuroides); experiment: Test C pre-/postemergence: blackgrass
Outline: as §3

soybean (Glycine max) = experiment: Test C pre-/postemergence: soybean
Outline: as §3

[5] = test system: pigweed (Amaranthus retroflexus); experiment: Test A pre-/postemergence: pigweed
Outline: as §2

[6] = test system: ragweed (common ragweed, Ambrosia elation); experiment: Test C pre-/postemergence: ragweed
Outline: as §3

[7] = test system: barnyardgrass (Echinochloa crus-galli); experiment: Test A pre-/postemergence: barnyardgrass
Outline: as §2

[8] = test system: morningglory (Ipomoea spp.); experiment: Test A pre-/postemergence: morningglory
Outline: as §2

[9] = Postemergence, 125 g ai/ha, 0 to 100 scale, 0 is no effect, 100 is complete control
[10] = Postemergence, 500 g ai/ha, 0 to 100 scale, 0 is no effect, 100 is complete control
[11] = Preemergence, 125 g ai/ha, 0 to 100 scale where 0 is no effect and 100 is complete control
[12] = Preemergence, 500 g ai/ha, 0 to 100 scale (0 no effect, 100 complete control)
[13] = Postemergence, 31 g ai/ha, scale 0 to 100 (0 no effect, 100 complete control)
[14] = Postemergence, 62 g ai/ha, scale 0 to 100 (0 no effect, 100 complete control)
[15] = Postemergence, 125 g ai/ha, scale 0 to 100, 0 no effect, 100 complete control
[16] = Postemergence, 250 g ai/ha, scale 0 to 100 (0 no effect, 100 complete control)
[17] = Preemergence, 31 g ai/ha, scale 0 (no effect) to 100 (complete control)
[18] = Preemergence, 62 g ai/ha, scale of 0 to 100, 0 is no effect, 100 is complete control
[19] = Preemergence, 125 g ai/ha, scale 0 to 100, 0 no effect, 100 complete control
[20] = Preemergence, 250 g ai/ha, scale 0 to 100, 0 no effect, 100 complete control
[21] = Postemergence, 250 g ai/ha, scale 0 to 100

CCCc1nn(-c2ccc(F)c(F)c2)nc1Oc1ccnc(C(F)(F)F)c1 [Compound 172]
Plant response rating, Rice (0 to 100 scale, 0 is no effect, 100 is complete control) (rice (Oryza sativa); 250 g ai/ha): 50
Plant response rating, Crabgrass, Large [1, 9]: 90
Crabgrass, Large plant response rating [1, 10]: 100
Plant response rating, Crabgrass, Large [1, 11]: 100
Plant response rating, Crabgrass, Large [1, 12]: 100
Plant response rating, Barnyardgrass (0 to 100 scale, 0 is no effect, 100 is complete control) ([2]; 250 g ai/ha): 80
Plant response rating, Lambsquarters [3, 13]: 98
Plant response rating, Lambsquarters [3, 14]: 98
Plant response rating, Lambsquarters [3, 15]: 98
Plant response rating, Lambsquarters [3, 16]: 98
Plant response rating, Lambsquarters [3, 17]: 90
Plant response rating, Lambsquarters [3, 18]: 90
Plant response rating, Lambsquarters [3, 19]: 95
Plant response rating, Lambsquarters [3, 20]: 95
Plant response rating, Blackgrass [4, 13]: 10
Plant response rating, Blackgrass [4, 14]: 25
Plant response rating, Blackgrass [4, 15]: 60
Plant response rating, Blackgrass [4, 21]: 60
Plant response rating, Blackgrass [4, 17]: 90
Plant response rating, Blackgrass [4, 18]: 95
Plant response rating, Blackgrass [4, 19]: 95
Plant response rating, Blackgrass [4, 20]: 95
Plant response rating, Soybean (soybean (Glycine max); [13]): 35
Plant response rating, Soybean (soybean (Glycine max); [14]): 45
Plant response rating, Soybean (soybean (Glycine max); [15]): 60
Plant response rating, Soybean (soybean (Glycine max); [16]): 60
Plant response rating, Soybean (soybean (Glycine max); [17]): 5
Plant response rating, Soybean (soybean (Glycine max); [18]): 10
Plant response rating, Soybean (soybean (Glycine max); [19]): 10
Plant response rating, Soybean (soybean (Glycine max); [20]): 35
Plant response rating, Pigweed [5, 9]: 100
Pigweed plant response rating [5, 10]: 100
Plant response rating, Pigweed [5, 11]: 100
Plant response rating, Pigweed [5, 12]: 100
Plant response rating, Ragweed [6, 13]: 75
Plant response rating, Ragweed [6, 14]: 75
Plant response rating, Ragweed [6, 15]: 80
Plant response rating, Ragweed [6, 16]: 80
Plant response rating, Ragweed [6, 17]: 35
Plant response rating, Ragweed [6, 18]: 40
Plant response rating, Ragweed [6, 19]: 80
Plant response rating, Ragweed [6, 20]: 85
Plant response rating, Barnyardgrass [7, 9]: 90
Barnyardgrass plant response rating [7, 10]: 90
Plant response rating, Morningglory [8, 9]: 100
Morningglory plant response rating [8, 10]: 100
Plant response rating, Morningglory [8, 11]: 60
Plant response rating, Morningglory [8, 12]: 80

CCCc1nn(-c2ccc(F)cc2F)nc1Oc1ccnc(C(F)(F)F)c1 [Compound 179]
Plant response rating, Rice (0 to 100 scale, 0 is no effect, 100 is complete control) (rice (Oryza sativa); 125 g ai/ha): 35
Plant response rating, Crabgrass, Large [1, 9]: 90
Crabgrass, Large plant response rating [1, 10]: 90
Plant response rating, Crabgrass, Large [1, 11]: 100
Plant response rating, Crabgrass, Large [1, 12]: 100
Plant response rating, Barnyardgrass (0 to 100 scale, 0 is no effect, 100 is complete control) ([2]; 125 g ai/ha): 0
Plant response rating, Lambsquarters [3, 13]: 80
Plant response rating, Lambsquarters [3, 14]: 80
Plant response rating, Lambsquarters [3, 15]: 85
Plant response rating, Lambsquarters [3, 16]: 90
Plant response rating, Lambsquarters [3, 17]: 98
Plant response rating, Lambsquarters [3, 18]: 98
Plant response rating, Lambsquarters [3, 19]: 98
Plant response rating, Lambsquarters [3, 20]: 100
Plant response rating, Blackgrass [4, 13]: 30
Plant response rating, Blackgrass [4, 14]: 50
Plant response rating, Blackgrass [4, 15]: 55
Plant response rating, Blackgrass [4, 21]: 60
Plant response rating, Blackgrass [4, 17]: 80
Plant response rating, Blackgrass [4, 18]: 100
Plant response rating, Blackgrass [4, 19]: 100
Plant response rating, Blackgrass [4, 20]: 100
Plant response rating, Soybean (soybean (Glycine max); [13]): 30
Plant response rating, Soybean (soybean (Glycine max); [14]): 35
Plant response rating, Soybean (soybean (Glycine max); [15]): 45
Plant response rating, Soybean (soybean (Glycine max); [16]): 45
Plant response rating, Soybean (soybean (Glycine max); [17]): 0
Plant response rating, Soybean (soybean (Glycine max); [18]): 10
Plant response rating, Soybean (soybean (Glycine max); [19]): 10
Plant response rating, Soybean (soybean (Glycine max); [20]): 25
Plant response rating, Pigweed [5, 9]: 100
Pigweed plant response rating [5, 10]: 100
Plant response rating, Pigweed [5, 11]: 100
Plant response rating, Pigweed [5, 12]: 100
Plant response rating, Ragweed [6, 13]: 50
Plant response rating, Ragweed [6, 14]: 55
Plant response rating, Ragweed [6, 15]: 60
Plant response rating, Ragweed [6, 16]: 75
Plant response rating, Ragweed [6, 17]: 40
Plant response rating, Ragweed [6, 18]: 40
Plant response rating, Ragweed [6, 19]: 45
Plant response rating, Ragweed [6, 20]: 45
Plant response rating, Barnyardgrass [7, 9]: 90
Barnyardgrass plant response rating [7, 10]: 90
Plant response rating, Barnyardgrass [7, 11]: 90
Plant response rating, Barnyardgrass [7, 12]: 100
Plant response rating, Morningglory [8, 9]: 100
Morningglory plant response rating [8, 10]: 100
Plant response rating, Morningglory [8, 11]: 40
Plant response rating, Morningglory [8, 12]: 70
